Structures are written as SMILES. Values joined by “and” are separate entries in the source; they are usually repeats but may differ in a detail not shown here. Equal entries are not always repeated. A value given as a limit tells only on which side of the number the result lay.

For orientation: IC50 means the concentration that gives 50% inhibition.

Assay [1] deals with T1, TNFα (Homo sapiens, UniProt P01375). Kind of assay: Fluorescence polarisation assay: inhibition of binding of fluorescence conjugate to TNFα. To be noted: 10 nM TNFα, 10 nM fluorescence conjugate, 60 minutes pre-incubation, then 20 hours at ambient temperature. On the procedure:
Fluorescence Polarisation Assay
Inhibition of Binding of Fluorescence Conjugate to TNFα
Compounds were tested at 10 concentrations starting from 25 μM in a final assay concentration of 5% DMSO, by pre-incubation with TNFα for 60 minutes at ambient temperature in 20 mM Tris, 150 mM NaCl, 0.05% Tween 20, before addition of the fluorescence conjugate and a further incubation for 20 hours at ambient temperature. The final concentrations of TNFα and the fluorescence conjugate were 10 nM and 10 nM respectively in a total assay volume of 25 μL. Plates were read on a plate reader capable of detecting fluorescence polarisation (e.g. an Analyst HT plate reader; or an Envision plate reader). An IC50 value was calculated using XLfit™ (4 parameter logistic model) in ActivityBase.
For orientation: In fluorescence polarisation assays a small probe gives low polarisation when free and higher when bound to something large.

Assay [2] concerns the target T1, TNFα. Kind of assay: Reporter gene assay (HEK-293 bioassay): inhibition of TNFα-induced NF-κB activation in HEK-Blue CD40L cells. The class given is cell-based. To be noted: 0.5 ng/mL TNFα, 60 minutes preincubation, 18 h incubation, read-out: IC50 value, inhibition of TNFα-induced NF-κB activation (SEAP reporter). An excerpt: The compounds in accordance with the present invention potently neutralise the activity of TNFα in a commercially available HEK-293 derived reporter cell line known as HEK-Blue™ CD40L. This is a stable HEK-293 transfected cell line expressing SEAP (secreted embryonic alkaline phosphatase) under the control of the IFNβ minimal promoter fused to five NF-κB binding sites. Secretion of SEAP by these cells is stimulated in a concentration-dependent manner by TNFα.
Inhibition of TNFα-induced NF-κB Activation
Stimulation of HEK-293 cells by TNFα leads to activation of the NF-κB pathway. The reporter cell line used to determine TNFα activity was purchased from InvivoGen. HEK-Blue™ CD40L is a stable HEK-293 transfected cell line expressing SEAP (secreted embryonic alkaline phosphatase) under the control of the IFNβ minimal promoter fused to five NF-κB binding sites. Secretion of SEAP by these cells is stimulated in a dose-dependent manner by TNFα, with an EC50 of 0.5 ng/mL for human TNFα. […] SEAP activity was determined in the supernatant using a colorimetric substrate, e.g. QUANTI-Blue™ or HEK-Blue™ Detection media (InvivoGen). Percentage inhibitions for compound dilutions were calculated between a DMSO control and maximum inhibition (by excess control compound) and an IC50 value calculated using XLfit™ (4 parameter logistic model) in ActivityBase.
For orientation: Reporter assays use an easily measured gene product as a stand-in for the process of interest.

T1 sequence (P01375 77-233 limits assumed): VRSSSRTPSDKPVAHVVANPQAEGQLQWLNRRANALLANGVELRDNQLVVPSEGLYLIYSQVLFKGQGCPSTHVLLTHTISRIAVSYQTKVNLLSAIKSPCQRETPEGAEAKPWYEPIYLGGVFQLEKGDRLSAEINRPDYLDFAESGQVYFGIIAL

Take `Cc1nc2ccc(-c3cnc(C(C)(C)O)nc3)cc2n1Cc1c(F)cccc1OC(F)F` [Example 1, 2-(5-{1-[2-(Difluoromethoxy)-6-fluorobenzyl]-2-methyl-1H-benzimidazol-6-yl}-pyrimidin-2-yl)propan-2-ol]: the IC50 was < 20 nM and 0.1 to 20 nM at TNFα [1]; < 50 nM and 0.5 to 50 nM at TNFα [2].

These data come from patent US10669263B2, “Substituted benzimidazole derivative as a modulator of TNF activity” (UCB Biopharma SRL, priority 2016, dated 2020).
